Assay results from article PMC8395335, “Serotonergic–Muscarinic Interaction within the Prefrontal Cortex as a Novel Target to Reverse Schizophrenia-Related Cognitive Symptoms” (International Journal of Molecular Sciences, 2021).

Assays:
[1] = set-up: method as in PMID 31174329, PMID 19438238; details: earlier studies; cited from earlier work
[2] = test system: MK-801-treated mice; experiment: Y-maze test (spontaneous alternations), MK-801-induced deficits; format: in vivo; details: for Reversal of MK-801-induced disruptions in Y-maze by combined administration: 7 days; for Effect of combined administration on spontaneous alternations in the Y-maze test: MK-801-treated
Experimental: Drugs were administered on two different schedules: (1) acute administration of compounds 45 min (WAY100635—5-HT1A antagonist) or 30 min (VU0357017, VU152100, VU0238429, and F15599) before MK-801 (also administered once 30 min before the test in Y-maze or T1 in NOR test); and (2) prolonged administration (once per day for 7 consecutive days) of the compounds and MK-801 with the last administration 24 h before the test (NOR test) or at the day of the test (Y-maze). […] Schedules of administration are presented graphically in Figure 2. The subeffective doses of the compounds for acute administration in the NOR test were chosen based on our previous research (see: [22, 23]) while dose-dependent studies of the activity of the compounds in reversing disruptions in the Y-maze or after prolonged administration along with MK-801 were performed within this study. Different vehicles were used throughout the study: (1) 0.9% NaCl and (2) 10% Tween 80. Vehicles were administered to all animals (e.g., control mice and MK-801-treated mice) on the same schedule as drugs were administered to the appropriate drug-treated groups of mice. Neither solvent exerted effects on animal behavior.
Male Albino Swiss mice (Charles River, Sulzfeld, Germany) weighing 20–25 g at the beginning of the experiments were used in the studies. The animals were housed in a room with a 12:12 h light-dark cycle at a temperature of 22 ± 1 °C with food and water available ad libitum. The experimental groups consisted of 8–10 animals. All drugs were administered intraperitoneally (i.p.) at a volume of 10 mL/kg. The behavioral experiments were performed by an observer who was blinded to the treatment. The procedures were conducted in accordance with the European Communities Council Directive of 22 September 2010 (2010/63/EU) and Polish legislation acts concerning animal experimentation and were approved by the II Local Ethics Committee by the Maj Institute of Pharmacology, Polish Academy of Sciences in Krakow (15/2020, 240/2020).
In acute experiments, the tested compounds (alone or in combination) were administered 30 min before MK-801 (0.3 mg/kg), which was administered 30 min before the test or training trial (T1) in the NOR test. In chronic experiments, the tested compounds (alone or in combination) and MK-801 were administered for seven days. Behavioral tests were performed on the eighth day.
The Y-maze was performed using the methods described by Miedel et al. and Kraeuter et al. with minor modifications. A black, wooden Y-shaped apparatus with equal length arms (labeled A, B, or C) spaced 120 apart was used in the behavioral experiment. Visual clues were placed inside the maze and mounted to the back wall of each arm. The experiment was performed in a well-lit room. The mice were placed in the same starting arm and were allowed to freely explore the maze for 8 min. After each trial, the maze was wiped clean. The sequence and the number of arm entries were recorded to calculate the percentage of spontaneous alternations using the following formula: [(Number of alternations)/(Total arm entries − 2)] × 100. An arm entry was scored if the animal entered the arm with all paws. Consecutive entries into three distinct arms were scored as an alternation (e.g., ACB, but not ACA) in which sequences could overlap (e.g., ACBACABAC represents […] alternations).

[3] = test system: PCP-induced deficits; set-up: method as in PMID 20488670; details: cited from earlier work
[4] = in vivo; set-up: species or system mice; details: mouse
Experimental: The experiment was performed using the methods described by Bridges et al. and in our previous studies.
The pharmacokinetic analysis was performed in the blood and prefrontal cortex. […] Plasma and FC samples were stored at −80 °C until analysis.
The drug was administered at a dose of 0.1 mg/kg; brain and tissue samples were collected 15, 30, 60, and 120 min after administration.
On the day of analysis, frozen whole mouse brain tissues were weighed and homogenized in 1:2 (w/v) volumes of ice-cold acetonitrile containing 0.1% FA and the internal standard mix. Samples were homogenized using a Metal Bead Lysing Matrix, vortexed for 1 min, shaken for 20 min at 4 °C on Thermomixer C, and centrifuged at 14,000× g rpm for 20 min at 4 °C. Finally, 50 µL of supernatant were diluted with 0.1% FA in water (1:1, v/v) and analyzed using HPLC/MS/MS.
The sample extraction of plasma (20 μL) was performed after spiking with the internal standard mix using the protein precipitation method and three volumes of ice-cold acetonitrile containing 0.1% formic acid. The extract was vortexed, incubated on ice for 20 min and centrifuged at 14,000× g rpm for 20 min at 4 °C. The supernatant was diluted with 0.1% FA in water (1:1, v/v) and analyzed by means of HPLC/MS/MS using a QTRAP 4500 (AB Sciex) mass spectrometer in positive ion mode in Multiple Reaction Monitoring (MRM screening) coupled with UHPLC (NEXERA XR, Shimadzu). Chromatographic separation was achieved on a Synergi 4 µm Fusion-RP 80 A 50 × 2 mm (Phenomenex) column at a flow rate of 0.2 mL/min. The gradient program was as follows: 20% B (0.3 min), 20–100% B (1.7 min), 100% B (3 min), 100–20% B (0.1 min), 20% B (2 min), solvent A (95:5:0.1% formic acid in water:methanol) and solvent B (methanol containing 0.1% formic acid). The column temperature was set to 40 °C. Analyst software was used to control the instrument and collect data. The ion transfer tube temperature was 300 °C. The spray voltage, collision energy, declastering potential, and gas parameters were optimized to achieve the maximal response using the test compounds. Selected reaction monitoring was carried out using the transition parameters. Calibration curves were constructed, and a linear response was obtained in the range of 0.25–500 ng/mL (VU357017, VU0152100, and F15599) and 1.25–2500 ng/mL (VU0238429) by spiking known amounts of each compound in blank brain homogenates and plasma. For VU0357017 and F15599 IS VU0152100 was used as internal standard. Sample concentration of internal standard was 100 ng/mL for IS VU0238429 and 50 ng/mL for IS VU0152100.

[5] = test system: rats; set-up: method as in PMID 19154445; details: cited from earlier work
[6] = F15599 0.025 mg/kg with VU0238429 1 mg/kg (subeffective doses)
[7] = acute, F15599 0.1 mg/kg with VU0238429 5 mg/kg
[8] = F15599 0.025 mg/kg with VU0357017 1 mg/kg (subeffective doses)
[9] = acute, F15599 0.1 mg/kg with VU0357017 10 mg/kg

Question: With `COc1ccc(CN2C(=O)C(=O)c3cc(OC(F)(F)F)ccc32)cc1` [VU0238429] as the compound, how does the “Brain penetration (whole brain)” value [1] read?
Answer: Its value is at most 8%.

Question: What about the “Reversal of MK-801-induced reduction in spontaneous alternations in the Y-maze” value (from here on “Reversal of MK-801-induced reduction”) ([2]; 7 days with MK-801, 0.5 mg/kg) of the same compound?
Answer: The value was “not”.

Question: What about the “Reversal of MK-801-induced reduction” value ([2]; 7 days with MK-801, 1 mg/kg) of the same compound?
Answer: Its value is “not”.

Question: And the “Reversal of MK-801-induced reduction” value ([2]; 7 days with MK-801, 5 mg/kg)?
Answer: Its value is “active”.

Question: What about the “Reversal of MK-801-induced disruptions in Y-maze by combined administration” value (“Reversal of MK-801-induced disruptions” below) [2, 6] of the same compound?
Answer: The value was “did not reverse”.

Question: And the “Reversal of MK-801-induced reduction” value ([2]; acute, 5 mg/kg i.p.)?
Answer: The value was “ineffective”.

Question: And the “Reversal of MK-801-induced reduction” value ([2]; acute, 10 mg/kg i.p.)?
Answer: The value was “reversed”.

Question: What about the “Reversal of MK-801-induced reduction” value ([2]; acute, 20 mg/kg i.p.) of the same compound?
Answer: The value was “reversed”.

Question: And the “Effect of combined administration on spontaneous alternations in the Y-maze test” value (from here on “Effect of combined administration”) [2, 7]?
Answer: Its value is “no effect”.

Question: What does the source list for `CCOC(=O)N1CCC(NCCNC(=O)c2ccccc2C)CC1` [VU0357017]?
Answer: Reversal of MK-801-induced reduction in spontaneous alternations in the Y-maze ([2]; 7 days with MK-801, 0.5 mg/kg): not; Reversal of MK-801-induced reduction in spontaneous alternations in the Y-maze ([2]; 7 days with MK-801, 1 mg/kg): not; Reversal of MK-801-induced reduction in spontaneous alternations in the Y-maze ([2]; 7 days with MK-801, 5 mg/kg): activity of VU0357017 was observed; Reversal of MK-801-induced disruptions in Y-maze by combined administration [2, 8]: did not reverse; Reversal of MK-801-induced reduction in spontaneous alternations in the Y-maze ([2]; acute, 1-10 mg/kg i.p.): No efficacy; Effect of combined administration on spontaneous alternations in the Y-maze test [2, 9]: no effect

Question: Which “Effect on PCP-induced deficits during the reversal phase of the learning task and in the hole-board test” value [3] does the source give for `Cc1cnc(CNCC2(F)CCN(C(=O)c3ccc(F)c(Cl)c3)CC2)nc1` [F15599] here?
Answer: The value was “ameliorated”.

Question: What about the “Reversal of MK-801-induced reduction” value ([2]; 7 days with MK-801, 0.025 mg/kg) of the same compound?
Answer: Its value is “ineffective”.

Question: What about the “Reversal of MK-801-induced reduction” value ([2]; 7 days with MK-801, 0.05 mg/kg) of the same compound?
Answer: Its value is “ineffective”.

Question: What about the “Reversal of MK-801-induced reduction” value ([2]; 7 days with MK-801, 0.1 mg/kg) of the same compound?
Answer: The value was “reversed”.

Question: And the “Reversal of MK-801-induced disruptions” value ([2]; F15599 0.025 mg/kg with VU0152100 0.05 mg/kg (subeffective doses))?
Answer: Its value is “did not reverse”.

Question: What about the “Reversal of MK-801-induced disruptions” value [2, 6] of the same compound?
Answer: Its value is “did not reverse”.

Question: And the “Reversal of MK-801-induced disruptions” value [2, 8]?
Answer: Its value is “did not reverse”.

Question: What about the “Reversal of MK-801-induced reduction” value ([2]; acute, 0.05-0.5 mg/kg i.p.) of the same compound?
Answer: Its value is “no efficacy”.

Question: What about the “Effect of combined administration” value ([2]; acute, F15599 0.1 mg/kg with VU0152100 1 mg/kg) of the same compound?
Answer: The value was “no effect”.

Question: What about the “Effect of combined administration” value [2, 7] of the same compound?
Answer: Its value is “no effect”.

Question: And the “Effect of combined administration” value [2, 9]?
Answer: Its value is “no effect”.

Question: And the “Time after administration up to which drug was detected in the frontal cortex” value ([4]; Albino Swiss)?
Answer: Its value is “up to 2 h”.

Question: What about the Tmax ([4]; Albino Swiss, ip, 0.1 mg/kg) of the same compound?
Answer: The Tmax was 15 min.

Question: What about the “Tmax PFC (FC)” value ([4]; Albino Swiss, ip, 0.1 mg/kg) of the same compound?
Answer: The value was 15 min.

Question: And the half-life ([4]; Albino Swiss, ip, 0.1 mg/kg)?
Answer: Its half-life is 120 min.

Question: What about the Cmax ([4]; Albino Swiss, ip, 0.1 mg/kg, Cmax PFC (FC)) of the same compound?
Answer: Its Cmax is 48 ng/mL.

Question: And the Cmax ([4]; Albino Swiss, ip, 0.1 mg/kg, Cmax plasma)?
Answer: The Cmax was 27 ng/mL.

Question: What about the half-life ([4]; ip, 0.1 mg/kg) of the same compound?
Answer: The half-life was 35 min.

Question: What about the “Doses inducing some adverse effects related to serotonergic syndrome” value [5] of the same compound?
Answer: The value was “greater than 0.16 mg/kg”.
